Assay results reported in patent publication US6989397B1, “Iron chelators and uses thereof” (University of Queensland, priority 1999, dated 2006).
Where “and” joins values, the source holds several entries; their conditions need not be identical. Identical values can stand only once. Like-named read-outs stand apart in the source and are kept apart here.

Legend:
BE-2 neuroblastoma cells = assay: 59Fe release from prelabelled cells (iron efflux); type: cell-based; conditions: labelled 3 h with 59Fe-transferrin 0.75 μM, reincubated 3 h at 37° C., chelators 50 μM, DFO 100 μM, Mean±SD
Protocol: (§1) The effect of chelators on ^59Fe uptake from ^59Fe-Tf and ^59Fe release from prelabelled cells was studied using standard procedures reported previously (Richardson et al., 1994, J. Lab Clin. Med. 124 660–71). The amount of ^59Fe internalized by the cells was measured by incubation with the general protease pronase (1 mg/ml) for 30 min at 4° C. to remove membrane-bound ^59Fe and Tf (Richardson et al., 1990; Baker et al., 1998, Biochim. Biophys. Acta 1380 21–30).
Table 1. The effect of DFO, 311, PCTH, PCBH, or PCBHH on ^59Fe release from BE-2 neuroblastoma cells, SK-N-MC neuroepithelioma cells, and SK-Mel-28 melanoma cells. Cells were labeled for 3 h at 37° C. with ^59Fe-transferrin (0.75 μM), washed, and then reincubated with the chelators for 3 h at 37° C. […] Results are Mean±SD of three determinations in a typical experiment.

SK-Mel-28 melanoma cells = assay: internalized 59Fe uptake from 59Fe-transferrin; type: cell-based, human; conditions: 59Fe-transferrin 0.75 μM, 3 h at 37° C., chelators 50 μM, DFO 100 μM, mean±SD
Protocol: as §1
Table 2. The effect of DFO, 311, PCTH, PCBH, or PCBHH on internalized ^59Fe uptake from ^59Fe-transferrin by BE-2 neuroblastoma cells, SK-N-MC neuroepithelioma cells, and SK-Mel-28 melanoma cells. Cells were incubated with the chelators and ^59Fe-transferrin (0.75 μM) for 3 h at 37° C., washed, and incubated for 30 min at 4° C. with pronase (1 mg/ml) to separate the internalized from the membrane-bound ^59Fe. All chelators were screened at a concentration of 50 μM except for DFO which was examined at 100 μM. Results are mean±SD (three determinations) from a typical experiment.

[1] = tested on: SK-N-MC neuroepithelioma cells; assay: cellular proliferation, MTT assay; type: cell-based, human; conditions: 90 h incubation, chelators 0.39–50 μM, read-out: IC50, inhibition of growth of SK-N-MC cells
Protocol: FIG. 4. The effect of chelator concentration on the proliferation of SK-N-MC neuroepithelioma cells. Cells were incubated in the presence and absence of the chelators (0–50 μM) for 90 h at 37° C. After this incubation period, cellular density was measured via the MTT assay. Each data point represents the mean of four replicates in a typical experiment of two experiments performed.
The effects of the chelators on the proliferation of SK-N-MC neuroepithelioma cells were examined using the MTT (3-(4,5-dimethylthiazol-2-yl)-2,5-diphenyltetrazolium) assay by essentially the same method as described previously (Richardson et al., 1995). Cellular proliferation was examined by seeding cells in 96-well microtitre plates at 15,000 cells/well in 0.1 mL of complete medium containing human diferric Tf (1.25 μM). […] The cells were allowed to grow overnight and the chelators were then added in 0.1 mL of complete medium containing differic transferrin (1.25 μM). The final concentrations of the chelators were 0.39–50 μM. Control samples contained complete medium and diferric Tf (1.25 μM). Cells were incubated with the chelators for 90 hrs at 37° C. in a humidified atmosphere containing 95% air and 5% CO2. After this incubation, 0.01 mL of MTT was added to each well and the plates incubated for 2 hrs at 37° C. The cells were solubilized by adding 0.1 mL of 10% SDS-50% isobutanol in 0.01 M HCl and the plates were read at 570 nm on a scanning multiwell spectrophotometer (Titertek Multiscan; Beckman Instruments Inc., California). As shown previously for the SK-N-MC cell line, MTT colour formation was directly proportional to the number of viable cells (Richardson et al., 1995).

[2] = tested on: 59Fe-loaded reticulocytes; assay: mobilisation of 59Fe from 59Fe-loaded reticulocytes (mitochondrial Fe overload model); type: cell-based, rabbit
Protocol: (§2) FIG. 7. The effect of reincubation time with the Fe chelators on ^59Fe mobilization from ^59Fe-loaded reticulocytes. The cells were labelled with ^59Fe-transferrin (3.75 μM) in the presence of the heme synthesis inhibitor, succinylacetone (1 mM), and incubated with the cells for 1 h at 37° C. The ^59Fe-labelled reticulocytes were then incubated with the chelators (200 μM) for 15–240 min at 37° C. The results are Mean±SD (3 determinations) in a typical experiment of three performed.
as §2, with “9.” for “7.”, “chelator concentration” for “reincubation time with the Fe chelators”, “(10–200” for “(200”
Reticulocytosis was induced by standard procedures (Richardson, D. R., Ponka, P and Vyoral, D (1996) Blood 87, 3477–3488) in New Zealand white rabbits by repeated phlebotomy by cardiac puncture using a protocol approved by the McGill University Animal Care Committee. Reticulocytes were identified based on staining with new methylene blue, and cell counts were determined using an improved Neubauer counting chamber.
Reticulocytes were obtained from chronically bled rabbits as described above and were incubated with 1 mM succinylacetone (SA: Sigma) to inhibit heme synthesis. After a 15 min preincubation in the presence of SA, ^59Fe-Tf ([…]) was added and incubated with the cells for 1 H at 37° C. with shaking. After this incubation the reticulocytes were washed three times with ice-cold PBS to remove non-specifically bound ^59Fe-Tf. The washed ^59Fe-labelled reticulocytes (30–35 μL) were incubated in buffered salt solution (250 μL final volume) with the apochelators. The SA was present in all incubations with the chelators to prevent the utilization of non-heme ^59Fe for heme synthesis. After the incubation, ^59Fe was measured both in washed reticulocytes and in the medium, and the percentage of ^59Fe mobilized from the reticulocytes was then calculated.

neuroblastoma (NB) = conditions: cited from earlier work
[3] = tested on: SK-N-MC neuroepithelioma cells; assay: 59Fe release from prelabelled cells (iron efflux); type: cell-based, human; conditions: chelators 0.5–50 μM, 'most effective' refers to concentrations up to 10 μM
[4] = tested on: SK-N-MC neuroepithelioma cells; assay: internalized 59Fe uptake from 59Fe-transferrin; type: cell-based, human; conditions: chelators 0.5–50 μM, 3 hr, 'most effective' refers to concentrations up to 10 μM

Structure (SMILES)	% Cellular Iron Released (BE-2 neuroblastoma cells) [%]	Internalised Iron Uptake (% Control) (SK-Mel-28 melanoma cells)	IC50 [1] [µM]	further results
CC(=O)N(O)CCCCCNC(=O)CCC(=O)N(O)CCCCCNC(=O)CCC(=O)N(O)CCCCCN [DFO, desferrioxamine, reference compound]	44 ± 2	98 % Control and 98 ± 7 % Control	–	IC50 ([1]; Homo sapiens, SK-N-MC): 47 µM; effect on mobilizing 59Fe from 59Fe-loaded reticulocytes at high concentrations ([2]; high concentrations up to 5 mM, activity similar to control medium): little effect; decrease in bone infiltration of tumor cells (neuroblastoma (NB); 7 of 9 patients with neuroblastoma, 8 hr intravenous infusion): > 50%; decrease in tumor size (neuroblastoma (NB); in 1 patient with neuroblastoma): 48%
O=C(NN=Cc1ccccn1)c1cccs1 [PCTH, 2-pyridylcarboxaldehyde 2-thiophenecarboxyl hydrazone]	50 ± 1	38 ± 6 % Control	–	efficacy at mobilizing 59Fe as a function of chelator concentration (FIG. 3A) [3]: most effective chelators; efficacy at preventing 59Fe uptake from 59Fe-Tf as a function of chelator concentration (FIG. 3B) [4]: most effective chelators
O=C(NN=Cc1c(O)ccc2ccccc12)c1ccncc1 [Chelator 311, 2-hydroxy-1-naphthylaldehyde isonicotinoyl hydrazone, reference compound]	52 ± 1	9 ± 1 % Control	2	–
O=C(NN=Cc1ccccn1)c1ccccc1 [PCBH, 2-pyridylcarboxaldehyde benzoyl hydrazone]	44 ± 1	36 ± 6 % Control	50	–
O=C(NN=Cc1ccco1)c1ccncc1 [FIH, 2furoylcarboxaldehyde isonicotinoyl hydrazone]	–	–	–	cellular 59Fe released from 59Fe-loaded reticulocytes, 1 h reincubation (FIG. 9) ([2]; chelator concentration 200 μM (range 10–200 μM), reincubated 1 h at 37° C., 3 determinations): very low activity; cellular 59Fe mobilized from 59Fe-loaded reticulocytes after 240 min ([2]; chelators 200 μM, 240 min of incubation, FIG. 7): 4%
